For one test, the target named is T1, K352E hGPRC6A (Homo sapiens, UniProt Q5T6X5, K352E).
T1 construct: expressed in transfected cells; host or cells: HEK-293, pcDNA3
T1 sequence (Q5T6X5 19-926 K352E): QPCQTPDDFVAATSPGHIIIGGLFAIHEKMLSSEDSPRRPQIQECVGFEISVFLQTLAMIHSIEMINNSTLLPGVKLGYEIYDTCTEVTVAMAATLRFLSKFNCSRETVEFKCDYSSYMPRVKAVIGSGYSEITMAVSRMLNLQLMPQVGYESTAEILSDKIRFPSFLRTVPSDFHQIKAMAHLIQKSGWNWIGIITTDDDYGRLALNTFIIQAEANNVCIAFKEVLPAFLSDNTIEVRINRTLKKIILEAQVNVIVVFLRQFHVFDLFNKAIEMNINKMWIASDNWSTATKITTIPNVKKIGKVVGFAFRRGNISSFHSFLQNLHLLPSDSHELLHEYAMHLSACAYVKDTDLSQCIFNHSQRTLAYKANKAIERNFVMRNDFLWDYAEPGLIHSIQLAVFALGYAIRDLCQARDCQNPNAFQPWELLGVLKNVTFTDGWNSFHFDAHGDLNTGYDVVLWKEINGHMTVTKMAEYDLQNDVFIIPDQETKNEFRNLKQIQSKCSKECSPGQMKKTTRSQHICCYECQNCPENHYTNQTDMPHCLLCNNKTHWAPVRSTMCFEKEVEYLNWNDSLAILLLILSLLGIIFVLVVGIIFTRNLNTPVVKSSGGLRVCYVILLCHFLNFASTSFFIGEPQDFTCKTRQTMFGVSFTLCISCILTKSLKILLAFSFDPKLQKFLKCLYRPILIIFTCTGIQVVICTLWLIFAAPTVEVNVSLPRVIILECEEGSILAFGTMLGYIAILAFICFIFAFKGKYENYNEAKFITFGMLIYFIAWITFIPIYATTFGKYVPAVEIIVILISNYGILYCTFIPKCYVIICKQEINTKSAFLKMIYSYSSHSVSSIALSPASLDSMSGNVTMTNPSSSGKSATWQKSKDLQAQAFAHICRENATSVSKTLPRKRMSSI
The test can be described thus: cAMP accumulation in HEK-293 cells transfected with K352E hGPRC6A. It counts as cell-based. The settings on record: K352E mutant; for cAMP accumulation by Ocn small fragments: fragment at 20 nM, Figure 6C. The method, then:
HEK‐293 transfected with human GPRC6A isoform cDNA plasmids cells (10^5 cells/well)[30] were cultured in 24‐well plates in DMEM supplemented with 10% fetal bovine serum and 1% penicillin/streptomycin (100 U/mL of penicillin and 100 μg/mL of streptomycin) for 48 h followed by 4 h incubation in DMEM/F12 containing 0.1% BSA and 0.5 mM IBMX to achieve quiescence and preventing cAMP degradation. Quiescent cells were treated with vehicle control, various ligands at concentration as indicated for 40 min at 37°C. Then, the reaction was stopped, and the cells lysed with 0.5 mL 0.1 N HCl. cAMP levels were measured by using Cyclic AMP EIA kit (Cayman Chemical; Ann Arbor, MA, USA) following the manufacture's protocol.
In‐vitro mutagenesis by PCR‐mediated recombination QuikChange II XL Site‐Directed Mutagenesis Kit (Agilent) was performed using the cDNA of human GPRC6A cloned in the vector pcDNA3 (Invitrogen) as a template. The primer sets are as follows. K352E.sen: […]; K352E.antisen: […]; H355P.sen: […]; H355P.antisen: […]; K352E/H355P.sen: […]; and K352E/H355P.antisen: […]. All mutants were confirmed by sequencing.
In general terms: Cyclic AMP is a second messenger, typically raised through Gs and lowered through Gi signalling.

Another test has as its target T2, human GPRC6A isoform 1 (Homo sapiens, UniProt Q5T6X5).
T2 construct: expressed in transfected cells; host or cells: HEK-293, pcDNA3-hGPRC6A
T2 sequence (Q5T6X5 19-926): T1 sequence (Q5T6X5 19-926 K352E) with E334K
The experiment in a line: ERK activation (phospho-ERK/total ERK ELISA) in HEK-293 cells transfected with human GPRC6A isoform 1 (wild-type). In kind it is cell-based. The settings on record: for ERK phosphorylation by synthesized human Ocn fragments: fragments at 20 nM, HEK-293 with pcDNA3-hGPRC6A, Figure 3B / S5B. The procedure:
All culture reagents were from Invitrogen (Waltham, MA, USA). Human embryonic kidney HEK‐293 cells were obtained from American Type Culture Collection and cultured in DMEM medium supplemented with 10% fetal bovine serum and 1% Penicillin/Streptomycin (P/S). Briefly, HEK‐293 cells transfected with/without human GPRC6A isoforms cDNA plasmids were starved by overnight incubation in serum‐free DMEM/F12 containing 0.1% bovine serum albumin (BSA) and stimulated with various ligands at different doses. […]
(In general: ELISA stands for enzyme-linked immunosorbent assay.)

Where a chain is given by its changes, count along the chain named. Bridge positions count the residues as written; N and C are the ends. Ends that are not written are not given here.

For the substance “osteocalcin (YLYQWLGAPVPYPDPLEPRREVCELNPDCDELADHIGFQEAYRRFYGPV; not fully specified; ends and bridges not checked; UniProt P02818 52-100, looked up) [Ocn 1–49, full human Ocn (49 aa) synthesized by BioMatik; methods also describe decarboxylated Ocn purified from bovine tibial bone, reference compound]”, the “cAMP accumulation, dose response of full-length Ocn, versus wild-type receptor” value with K352E hGPRC6A (Figure 6A) was “significantly decreased”. For the same substance, in the test with human GPRC6A isoform 1 (WT hGPRC6A, Figure 6B), the “ERK phosphorylation, dose response of full-length Ocn” value is reported as “dose‐dependently stimulated”. For the same substance, the “Ocn-induced ERK activation, dose response” value with human GPRC6A isoform 1 (isoform 1, Ocn 1.73, 8.65, 17.3, 26.0 nM, 1 mM calcium, 15 min, Figure 2B) was “activated GPRC6A isoform 1 in a dose dependent manner”.
In the case of “RFYGPV [Ocn 44–49, synthesized human Ocn C‐terminal hexapeptide]”, the “cAMP accumulation by Ocn small fragments” value at K352E hGPRC6A is listed as “significantly attenuated”. The “ERK phosphorylation by synthesized human Ocn fragments” value on human GPRC6A isoform 1 (15 min) was “high activity”.
“REVCELNPDC (disulfide 4-10 (inferred)) [Ocn 20–29, synthesized human Ocn decapeptide fragment located in the middle of the protein]”: on K352E hGPRC6A, the “cAMP accumulation by Ocn small fragments” value is on record as “no response”. Also, on human GPRC6A isoform 1 (15 min), the “ERK phosphorylation by synthesized human Ocn fragments” value is listed as “high activity”.

The values above are taken from article PMC11467737, “Osteocalcin binds to a GPRC6A Venus fly trap allosteric site to positively modulate GPRC6A signaling” (FASEB BioAdvances, 2024).
